Laboratory results taken from patent US20220132846A1, “1-PYRIDYL-PYRAZOLYL AMIDE COMPOUNDS AND PREPARATION AND USES THEREOF” (HUNAN RESEARCH INSTITUTE OF CHEMICAL INDUSTRY CO., LTD., priority 2019, published 2022).

Key:
Aphis fabae = assay: Test against aphid, leaf dip method (Aphis fabae); assay type: in vivo; details: foliar, after 24 hours, read-out: Activity (mortality) level against Aphis fabae; for mortality at 12.5 µg/mL: 12.5 mg/L; for mortality at 50 µg/mL: 50 mg/L; for mortality at 200 µg/mL: 200 mg/L; for mortality at 500 µg/mL: 500 mg/L
Method: For evaluating the activity of the compounds of this invention against Homoptera pests, Aphis fabae, wheat aphids, etc. were selected as the test insects, and the activity of the compounds of this invention against aphids was measured by leaf dip method indoors.
Leaf dip method (Aphis fabae): the test compound was dissolved in an appropriate solvent such as N,N-dimethylformamide, and then diluted with 0.2% aqueous solution of Tween 80 to the desired concentration, Those without the test compounds were set as blank controls, the treatments were replicated 3 times. Horsebean seedlings with no less than twenty 3-day-old Aphis fabae per plant was cut from the stem, 5 horsebean seedlings with the insects were dipped in the test solution for 5 seconds, then inserted into a sponge filled with water after sucked dry using filter paper, then covered with a glass tube and placed in a chamber for culture. After 24 hours, the number of living and dead insects were investigated and the results were averaged. […]

[1] = tested on: Armyworm (Mythimna separata (Walker)); assay: Test against armyworm, Potter tower method; assay type: in vivo; details: for mortality at 50 µg/mL / mortality at 500 µg/mL / mortality at 12.5 µg/mL: Mythimna separata, third-instar larvae, after 72 hours, read-out: Activity (mortality) level against armyworm; for mortality at 50 µg/mL: 50 mg/L; for mortality at 500 µg/mL: 500 mg/L; for mortality at 12.5 µg/mL: 12.5 mg/L; for Activity against armyworm, further screening (in words): compared with chlorantraniliprole (D1)
Method: Potter tower method: the test compound was dissolved in an appropriate solvent such as N,N-dimethylformamide, and then diluted with 0.2% aqueous solution of Tween 80 to the desired concentration, Those without the test compounds were set as blank controls. The fresh and tender corn leaves were taken and cut into fragments of basically the same size, then put into a Petri dish (diameter 90 mm) padded with filter paper in advance. Ten third-instar larvae of test insects were transferred into the dish and then placed under the Potter spray tower for being sprayed, each concentration treatment was sprayed at the amount of 1 mL and replicated 3 times. The dish was covered and then placed in a chamber for culture and observed regularly, after 72 hours, the dead insects was investigated and recorded and the mean mortality was calculated. […]

| SMILES | mortality at 12.5 µg/mL (Aphis fabae) | mortality at 50 µg/mL (Aphis fabae) | mortality at 200 µg/mL (Aphis fabae) | mortality at 500 µg/mL (Aphis fabae) | mortality at 50 µg/mL [1] | mortality at 500 µg/mL [1] | mortality at 12.5 µg/mL [1] | Activity against armyworm, further screening (in words) [1] |
| --- | --- | --- | --- | --- | --- | --- | --- | --- |
| Cc1cc(Cl)cc(C(=S)N(C)C)c1N(C)C(=O)c1cc(Br)nn1-c1ncccc1Cl [Compound 47, N-[2-methyl-4-chloro-6-[(dimethylamino)thioxomethyl]phenyl]-N-methyl-1-(3-chloro-2-pyridinyl)-3-bromo-1H-pyrazole-5-carboxamide] | 90 to 100% | 90 to 100% | 90 to 100% | 90 to 100% | 90 to 100% | 90 to 100% | – | – |
| CN(C(=O)c1cc(Br)nn1-c1ncccc1Cl)c1c(Cl)cc(Cl)cc1C(=O)N(C)C1CC1 [Compound 14, N-[2,4-dichloro-6-[(methyl(cyclopropyl)amino)carbonyl]phenyl]-N-methyl-1-(3-chloro-2-pyridinyl)-3-bromo-1H-pyrazole-5-carboxamide] | 90 to 100% | 90 to 100% | 90 to 100% | 90 to 100% | 90 to 100% | 90 to 100% | 90 to 100% | excellent activity |
| CCCN(C)C(=O)c1cc(Cl)cc(Cl)c1N(CCC)C(=O)c1cc(Br)nn1-c1ncccc1Cl [Compound 20, N-[2,4-dichloro-6-[(methyl(propyl)amino)carbonyl]phenyl]-N-propyl-1-(3-chloro-2-pyridinyl)-3-bromo-1H-pyrazole-5-carboxamide] | – | – | 90 to 100% | 90 to 100% | 90 to 100% | 90 to 100% | – | – |
| CC(C)N(C)C(=S)c1cc(Cl)cc(Cl)c1N(C)C(=O)c1cc(Br)nn1-c1ncccc1Cl [Compound 22, N-[2,4-dichloro-6-[(methyl(isopropyl)amino)thioxomethyl]phenyl]-N-methyl-1-(3-chloro-2-pyridinyl)-3-bromo-1H-pyrazole-5-carboxamide] | 90 to 100% | 90 to 100% | 90 to 100% | 90 to 100% | 90 to 100% | 90 to 100% | 90 to 100% | – |
| CC(C)NC(=O)c1cc(Cl)cc(Br)c1N(C)C(=O)c1ccnn1-c1ncccc1Cl [Compound 28, N-[2-bromo-4-chloro-6-[(isopropylamino)carbonyl]phenyl]-N-methyl-1-(3-chloro-2-pyridinyl)-1H-pyrazole-5-carboxamide] | – | – | 90 to 100% | 90 to 100% | 90 to 100% | 90 to 100% | 90 to 100% | – |
| CNC(=O)c1cc(Cl)cc(C)c1N(C)C(=O)c1cc(Br)nn1-c1ncccc1Cl [Compound 42, N-[2-methyl-4-chloro-6-[(methylamino)carbonyl]phenyl]-N-methyl-1-(3-chloro-2-pyridinyl)-3-bromo-1H-pyrazole-5-carboxamide] | 90 to 100% | 90 to 100% | 90 to 100% | 90 to 100% | 90 to 100% | 90 to 100% | 90 to 100% | – |
| CC(C)NC(=O)c1cc(Cl)cc(Cl)c1N(C)C(=O)c1cc(Br)nn1-c1ncccc1Cl [Compound 5, N-[2,4-dichloro-6-[(isopropylamino)carbonyl]phenyl]-N-methyl-1-(3-chloro-2-pyridinyl)-3-bromo-1H-pyrazole-5-carboxamide] | 90 to 100% | 90 to 100% | 90 to 100% | 90 to 100% | 90 to 100% | 90 to 100% | 90 to 100% | excellent activity |
| CCCN(C)C(=O)c1cc(Cl)cc(C)c1N(C)C(=O)c1cc(Br)nn1-c1ncccc1Cl [Compound 46, N-[2-methyl-4-chloro-6-[(methyl(propyl)amino)carbonyl]phenyl]-N-methyl-1-(3-chloro-2-pyridinyl)-3-bromo-1H-pyrazole-5-carboxamide] | – | – | 90 to 100% | 90 to 100% | 90 to 100% | 90 to 100% | – | – |
| CCN(C(=O)c1cc(Br)nn1-c1ncccc1Cl)c1c(Br)cc(Cl)cc1C(=O)N(C)C [Compound 38, N-[2-bromo-4-chloro-6-[(dimethylamino)carbonyl]phenyl]-N-ethyl-1-(3-chloro-2-pyridinyl)-3-bromo-1H-pyrazole-5-carboxamide] | 90 to 100% | 90 to 100% | 90 to 100% | 90 to 100% | 90 to 100% | 90 to 100% | – | – |
